From the supplement of paper PMC11061612

What was measured:
Assay in all cases: combination Emax (second highest fraction inhibited in the dose matrix, 72 h); higher = more inhibition; extreme values may be limits of the assay
[1] = system: 42-MG-BA (Glioblastoma)
Procedure, shortened: (§1)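 Bliss excess equals the observed combination effect minus the expected value EA + EB − EA·EB, where EA and EB are the effects of each agent alone. Combination Emax is the second-highest inhibition within the matrix. Inhibition was scaled from CellTiter-Glo 2.0 luminescence, with 0 set by vehicle wells and 1 by blank wells, after 72 hours of two-drug dosing of cells plated in 1536-well plates.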

[2] = system: AGS (Gastric Carcinoma)
Procedure, shortened: as §1

[3] = system: B-CPAP (Thyroid Gland Carcinoma)
Procedure, shortened: as §1

[4] = system: CCRF-CEM (T-Lymphoblastic Leukemia)
Procedure, shortened: as §1

[5] = system: COLO-205 (Colorectal Carcinoma)
Procedure, shortened: as §1

[6] = system: CaR-1 (Colorectal Carcinoma)
Procedure, shortened: as §1

[7] = system: DEL (T-Cell Non-Hodgkin's Lymphoma)
Procedure, shortened: as §1

[8] = system: EC-GI-10 (Esophageal Squamous Cell Carcinoma)
Procedure, shortened: as §1

[9] = system: ES4 (Ewing's Sarcoma)
Procedure, shortened: as §1

[10] = system: HO-1-N-1 (Oral Cavity Carcinoma)
Procedure, shortened: as §1

[11] = system: HuP-T4 (Pancreatic Carcinoma)
Procedure, shortened: as §1

[12] = system: LU-135 (Small Cell Lung Carcinoma)
Procedure, shortened: as §1

[13] = system: NB10 (Neuroblastoma)
Procedure, shortened: as §1

[14] = system: NCI-H2085 (Non-Small Cell Lung Carcinoma)
Procedure, shortened: as §1

[15] = system: NCI-H82 (Small Cell Lung Carcinoma)
Procedure, shortened: as §1

[16] = system: OVCA420 (Ovarian Carcinoma)
Procedure, shortened: as §1

[17] = system: RC-K8 (B-Cell Non-Hodgkin's Lymphoma)
Procedure, shortened: as §1

[18] = system: TCCSUP (Bladder Carcinoma)
Procedure, shortened: as §1

[19] = system: TE-15 (Esophageal Squamous Cell Carcinoma)
Procedure, shortened: as §1

[20] = system: UM-UC-3 (Bladder Carcinoma)
Procedure, shortened: as §1

## CC(=O)Nc1cccc(-n2c(=O)n(C3CC3)c(=O)c3c(Nc4ccc(I)cc4F)n(C)c(=O)c(C)c32)c1 [Trametinib] + Cc1nc(-c2cn3c(n2)-c2ccc(-c4cnn(C(C)(C)C(N)=O)c4)cc2OCC3)n(C(C)C)n1 [Taselisib] (first compound max 1 µM, 7x7, partner max 10 µM)
[1]
  combination Emax: 0.971
[2]
  combination Emax: 1
[3]
  combination Emax: 0.558
[4]
  combination Emax: 0.517
[5]
  combination Emax: 0.946
[6]
  combination Emax: 0.776
[7]
  combination Emax: 0.618
[8]
  combination Emax: 1
[9]
  combination Emax: 0.715
[10]
  combination Emax: 0.991
[11]
  combination Emax: 0.832
[12]
  combination Emax: 0.514
[13]
  combination Emax: 0.921
[14]
  combination Emax: 0.52
[15]
  combination Emax: 0.243
[16]
  combination Emax: 0.917
[17]
  combination Emax: 0.512
[18]
  combination Emax: 0.65
[19]
  combination Emax: 0.664
[20]
  combination Emax: 0.773

## CC1(C)CCC(CN2CCN(c3ccc(C(=O)NS(=O)(=O)c4ccc(NCC5CCOCC5)c([N+](=O)[O-])c4)c(Oc4cnc5[nH]ccc5c4)c3)CC2)=C(c2ccc(Cl)cc2)C1 [Venetoclax] + C1CN(CCC1(C(=O)N[C@@H](CCO)C2=CC=C(C=C2)Cl)N)C3=NC=NC4=C3C=CN4 [Capivasertib] (first compound max 1 µM, 7x7, partner max 3 µM)
[1]
  combination Emax: 0.518
[2]
  combination Emax: 0.316
[3]
  combination Emax: 0.177
[4]
  combination Emax: 0.957
[5]
  combination Emax: 0.237
[6]
  combination Emax: 0.264
[7]
  combination Emax: 0.295
[8]
  combination Emax: 0.426
[9]
  combination Emax: 0.155
[10]
  combination Emax: 0.258
[11]
  combination Emax: 0.0995
[12]
  combination Emax: 0.317
[13]
  combination Emax: 0.139
[14]
  combination Emax: 0.329
[15]
  combination Emax: 0.3
[16]
  combination Emax: 0.146
[17]
  combination Emax: 0.333
[18]
  combination Emax: 0.189
[19]
  combination Emax: 0.401
[20]
  combination Emax: 0.272

## CC1(C)CCC(CN2CCN(c3ccc(C(=O)NS(=O)(=O)c4ccc(NCC5CCOCC5)c([N+](=O)[O-])c4)c(Oc4cnc5[nH]ccc5c4)c3)CC2)=C(c2ccc(Cl)cc2)C1 [Venetoclax] + C=CCn1c(=O)c2cnc(Nc3ccc(N4CCN(C)CC4)cc3)nc2n1-c1cccc(C(C)(C)O)n1 [AZD1775] (first compound max 1 µM, partner max 1 µM)
[1]
  combination Emax: 0.287
[2]
  combination Emax: 0.595
[3]
  combination Emax: 0.502
[4]
  combination Emax: 1
[5]
  combination Emax: 0.606
[6]
  combination Emax: 0.246
[7]
  combination Emax: 1
[8]
  combination Emax: 0.903
[9]
  combination Emax: 0.437
[10]
  combination Emax: 0.745
[11]
  combination Emax: 0.378
[12]
  combination Emax: 0.688
[13]
  combination Emax: 0.865
[14]
  combination Emax: 0.398
[15]
  combination Emax: 0.917
[16]
  combination Emax: 0.384
[17]
  combination Emax: 0.815
[18]
  combination Emax: 0.475
[19]
  combination Emax: 0.796
[20]
  combination Emax: 0.294

## CC1(C)CCC(CN2CCN(c3ccc(C(=O)NS(=O)(=O)c4ccc(NCC5CCOCC5)c([N+](=O)[O-])c4)c(Oc4cnc5[nH]ccc5c4)c3)CC2)=C(c2ccc(Cl)cc2)C1 [Venetoclax] + CCN(CCO)CCCOc1ccc2c(Nc3cc(CC(=O)Nc4cccc(F)c4)[nH]n3)ncnc2c1 [AZD2811] (first compound max 1 µM, 7x7, partner max 1 µM)
[1]
  combination Emax: 0.534
[2]
  combination Emax: 0.346
[3]
  combination Emax: 0.206
[4]
  combination Emax: 1
[5]
  combination Emax: 0.713
[6]
  combination Emax: 0.282
[7]
  combination Emax: 0.754
[8]
  combination Emax: 0.308
[9]
  combination Emax: 0.164
[10]
  combination Emax: 0.687
[11]
  combination Emax: 0.263
[12]
  combination Emax: 0.899
[13]
  combination Emax: 0.5
[14]
  combination Emax: 0.46
[15]
  combination Emax: 0.457
[16]
  combination Emax: 0.188
[17]
  combination Emax: 0.423
[18]
  combination Emax: 0.311
[19]
  combination Emax: 0.441
[20]
  combination Emax: 0.16

## CC1(C)CCC(CN2CCN(c3ccc(C(=O)NS(=O)(=O)c4ccc(NCC5CCOCC5)c([N+](=O)[O-])c4)c(Oc4cnc5[nH]ccc5c4)c3)CC2)=C(c2ccc(Cl)cc2)C1 [Venetoclax] + CN(C)CCCOc1ccc(-c2ccc3ncc4c(c3c2)n(C2CCOCC2)c(=O)n4C)cn1 [AZD0156] (first compound max 1 µM, 7x7, partner max 1 µM)
[1]
  combination Emax: 0.367
[2]
  combination Emax: 0.221
[3]
  combination Emax: 0.28
[4]
  combination Emax: 0.931
[5]
  combination Emax: 0.237
[6]
  combination Emax: 0.145
[7]
  combination Emax: 0.192
[8]
  combination Emax: 0.221
[9]
  combination Emax: 0.173
[10]
  combination Emax: 0.53
[11]
  combination Emax: 0.144
[12]
  combination Emax: 0.274
[13]
  combination Emax: 0.538
[14]
  combination Emax: 0.186
[15]
  combination Emax: 0.343
[16]
  combination Emax: 0.178
[17]
  combination Emax: 0.316
[18]
  combination Emax: 0.189
[19]
  combination Emax: 0.451
[20]
  combination Emax: 0.252

## CC1(C)CCC(CN2CCN(c3ccc(C(=O)NS(=O)(=O)c4ccc(NCC5CCOCC5)c([N+](=O)[O-])c4)c(Oc4cnc5[nH]ccc5c4)c3)CC2)=C(c2ccc(Cl)cc2)C1 [Venetoclax] + COc1cc(Nc2ncc3c(n2)-c2ccc(Cl)cc2C(c2c(F)cccc2OC)=NC3)ccc1C(=O)O [Alisertib] (first compound max 1 µM, 7x7, partner max 10 µM)
[1]
  combination Emax: 0.59
[2]
  combination Emax: 0.557
[3]
  combination Emax: 0.598
[4]
  combination Emax: 0.992
[5]
  combination Emax: 0.693
[6]
  combination Emax: 0.401
[7]
  combination Emax: 1
[8]
  combination Emax: 0.554
[9]
  combination Emax: 0.233
[10]
  combination Emax: 0.876
[11]
  combination Emax: 0.355
[12]
  combination Emax: 0.797
[13]
  combination Emax: 0.995
[14]
  combination Emax: 0.597
[15]
  combination Emax: 0.73
[16]
  combination Emax: 0.326
[17]
  combination Emax: 0.585
[18]
  combination Emax: 0.475
[19]
  combination Emax: 0.686
[20]
  combination Emax: 0.399

## CC1(C)CCC(CN2CCN(c3ccc(C(=O)NS(=O)(=O)c4ccc(NCC5CCOCC5)c([N+](=O)[O-])c4)c(Oc4cnc5[nH]ccc5c4)c3)CC2)=C(c2ccc(Cl)cc2)C1 [Venetoclax] + C[C@@H]1COCCN1C2=NC(=NC(=C2)C3(CC3)[S@](=N)(=O)C)C4=C5C=CNC5=NC=C4 [AZD6738] (first compound max 1 µM, 7x7, partner max 10 µM)
[1]
  combination Emax: 0.678
[2]
  combination Emax: 0.72
[3]
  combination Emax: 0.631
[4]
  combination Emax: 1
[5]
  combination Emax: 0.344
[6]
  combination Emax: 0.484
[7]
  combination Emax: 0.996
[8]
  combination Emax: 0.608
[9]
  combination Emax: 0.793
[10]
  combination Emax: 0.871
[11]
  combination Emax: 0.394
[12]
  combination Emax: 0.761
[13]
  combination Emax: 0.849
[14]
  combination Emax: 0.534
[15]
  combination Emax: 0.86
[16]
  combination Emax: 0.493
[17]
  combination Emax: 0.837
[18]
  combination Emax: 0.638
[19]
  combination Emax: 0.796
[20]
  combination Emax: 0.538

## CC1(C)CCC(CN2CCN(c3ccc(C(=O)NS(=O)(=O)c4ccc(NCC5CCOCC5)c([N+](=O)[O-])c4)c(Oc4cnc5[nH]ccc5c4)c3)CC2)=C(c2ccc(Cl)cc2)C1 [Venetoclax] + C[C@@H](Nc1cc(F)cc(F)c1)c1cc(C(=O)N(C)C)cc2c(=O)cc(N3CCOCC3)oc12 [AZD8186] (first compound max 1 µM, 7x7, partner max 3 µM)
[1]
  combination Emax: 0.391
[2]
  combination Emax: 0.106
[3]
  combination Emax: 0.132
[4]
  combination Emax: 0.95
[5]
  combination Emax: 0.285
[6]
  combination Emax: 0.109
[7]
  combination Emax: 0.312
[8]
  combination Emax: 0.131
[9]
  combination Emax: 0.211
[10]
  combination Emax: 0.152
[11]
  combination Emax: 0.195
[12]
  combination Emax: 0.484
[13]
  combination Emax: 0.24
[14]
  combination Emax: 0.354
[15]
  combination Emax: 0.141
[16]
  combination Emax: 0.165
[17]
  combination Emax: 0.281
[18]
  combination Emax: 0.131
[19]
  combination Emax: 0.369
[20]
  combination Emax: 0.164

## CC1(C)CCC(CN2CCN(c3ccc(C(=O)NS(=O)(=O)c4ccc(NCC5CCOCC5)c([N+](=O)[O-])c4)c(Oc4cnc5[nH]ccc5c4)c3)CC2)=C(c2ccc(Cl)cc2)C1 [Venetoclax] + Cc1cc2ncnn2cc1Nc1ncc2c(n1)n(C1CCOCC1)c(=O)n2C [AZD7648] (first compound max 1 µM, 7x7, partner max 10 µM)
[1]
  combination Emax: 0.43
[2]
  combination Emax: 0.199
[3]
  combination Emax: 0.281
[4]
  combination Emax: 0.931
[5]
  combination Emax: 0.213
[6]
  combination Emax: 0.175
[7]
  combination Emax: 0.457
[8]
  combination Emax: 0.436
[9]
  combination Emax: 0.104
[10]
  combination Emax: 0.331
[11]
  combination Emax: 0.202
[12]
  combination Emax: 0.386
[13]
  combination Emax: 0.246
[14]
  combination Emax: 0.143
[15]
  combination Emax: 0.221
[16]
  combination Emax: 0.223
[17]
  combination Emax: 0.496
[18]
  combination Emax: 0.271
[19]
  combination Emax: 0.295
[20]
  combination Emax: 0.139

## CC1(C)CCC(CN2CCN(c3ccc(C(=O)NS(=O)(=O)c4ccc(NCC5CCOCC5)c([N+](=O)[O-])c4)c(Oc4cnc5[nH]ccc5c4)c3)CC2)=C(c2ccc(Cl)cc2)C1 [Venetoclax] + Cn1cnc2c(F)c(Nc3ccc(Br)cc3Cl)c(C(=O)NOCCO)cc21 [Selumetinib] (first compound max 1 µM, 7x7, partner max 3 µM)
[1]
  combination Emax: 0.215
[2]
  combination Emax: 0.656
[3]
  combination Emax: 0.241
[4]
  combination Emax: 0.926
[5]
  combination Emax: 0.718
[6]
  combination Emax: 0.103
[7]
  combination Emax: 0.382
[8]
  combination Emax: 0.313
[9]
  combination Emax: 0.0348
[10]
  combination Emax: 0.205
[11]
  combination Emax: 0.352
[12]
  combination Emax: 0.332
[13]
  combination Emax: 0.381
[14]
  combination Emax: 0.23
[15]
  combination Emax: 0.161
[16]
  combination Emax: 0.403
[17]
  combination Emax: 0.227
[18]
  combination Emax: 0.136
[19]
  combination Emax: 0.263
[20]
  combination Emax: 0.189
